The text below walks through data of US8853389B2, “Process for refining cefmetazole sodium” (Hainan Lingkang Pharmaceutical Co., Ltd., priority 2011, dated 2014).

The test system of one data set is meningococcus. As to conditions: cited from earlier work.
A further data set in a line: solubility in solvents. In kind it is physicochemical. The source says:
Since the solubility of Cefmetazole sodium is high in water but very low in ethanol and even lower in acetone, a mixture of water and ethanol or a mixture of water and acetone is chosen as the solvent to recrystallize Cefmetazole sodium.

Another data set has as its system Bacteroides fragilis. As to conditions: cited from earlier work.
The subject of data set [1] is group A hemolytic streptococcus. As to conditions: cited from earlier work.
Data set [2] relates to methicillin-resistant Staphylococcus aureus. The conditions noted are these: cited from earlier work.
For the next data set, the system named is Shigella. As to conditions: cited from earlier work.
In another data set the test system is Staphylococcus aureus. As to conditions: cited from earlier work.
Data set [3] can be described thus: appearance of aqueous solution of refined material. In kind it is physicochemical. The conditions noted are these: solution of about 0.1 g/mL in water.
The next data set relates to Salmonella. As to conditions: cited from earlier work.
A further data set has as its system Enterobacter. The conditions noted are these: cited from earlier work.
For another data set, the system named is Escherichia coli. The conditions noted are these: cited from earlier work.
The subject of data set [4] is catarrhal Brenham bacteria. The conditions noted are these: cited from earlier work.
For another data set, the system named is Pseudomonas. The conditions noted are these: cited from earlier work.
A further data set deals with Klebsiella pneumoniae. The conditions noted are these: cited from earlier work.
In a further data set the test system is pneumococcus. As to conditions: cited from earlier work.
A further data set concerns Proteus mirabilis. As to conditions: cited from earlier work.
Data set [5] has as its system broad-spectrum β-lactamase generated by negative bacilli. The conditions noted are these: cited from earlier work.

As for `CO[C@]1(NC(=O)CSCC#N)C(=O)N2C(C(=O)[O-])=C(CSc3nnnn3C)CS[C@H]21.[Na+]` [Cefmetazole sodium], the sensitivity entry was “low sensitivity or resistance” in the data set with meningococcus; “high sensitivity” in [1]; “low sensitivity or resistance” in data set [2]; “high sensitivity” in the data set with Staphylococcus aureus; “low sensitivity or resistance” with Enterobacter; “high sensitivity” in data set [4]. For the same compound, the sensitivity entry in the data set on Pseudomonas and with pneumococcus was “low sensitivity or resistance” throughout. The results for the solubility result in “solubility in solvents” (in ethanol) and in the data set “solubility in solvents” (in water) were “very low” and “high”, respectively. Besides, the antibacterial activity result is on record as “good antibacterial activity” in the data set with Bacteroides fragilis; “relatively good activity” in the data set with Shigella; “relatively good activity” in the data set on Salmonella; “relatively good activity” in the data set with Escherichia coli; “relatively good activity” with Klebsiella pneumoniae; “relatively good activity” in the data set with Proteus mirabilis. Also, the appearance of solution entry in [3] is “clear and colorless”. The “stability towards β-lactamase” value in data set [5] was “more stable”.
